Data reported in patent US20260022096A1, “NOVEL SULFONAMIDES AND THEIR USE AS NEUROPROTECTIVE AND/OR NEURORESTORATIVE AGENTS” (GENECODE, priority 2022, published 2026).

Molecular target: T1, GFRα1-RET (Homo sapiens, UniProt P56159)
T1 construct: expressed in transfected cells; host or cells: MG87 murine fibroblasts, stably transfected
T1 sequence (P56159 25-429 limits assumed): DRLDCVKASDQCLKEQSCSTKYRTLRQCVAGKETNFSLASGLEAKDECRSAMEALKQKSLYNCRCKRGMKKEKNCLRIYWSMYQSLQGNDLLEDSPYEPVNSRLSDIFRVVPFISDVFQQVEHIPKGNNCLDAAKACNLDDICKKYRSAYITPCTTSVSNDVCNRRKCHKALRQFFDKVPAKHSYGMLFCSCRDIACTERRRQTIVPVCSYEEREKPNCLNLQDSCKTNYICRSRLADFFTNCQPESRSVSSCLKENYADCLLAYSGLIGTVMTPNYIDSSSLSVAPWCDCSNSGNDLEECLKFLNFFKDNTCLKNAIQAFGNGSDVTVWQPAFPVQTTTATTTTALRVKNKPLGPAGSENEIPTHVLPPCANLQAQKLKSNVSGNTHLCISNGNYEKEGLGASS
Assay: Elk1 reporter-gene (luciferase) assay in cells expressing GFRα1-RET
Assay type: cell-based
Conditions: MG87 murine fibroblasts stably transfected with PathDetect Elk-1, GFRα1 and RET, 6 concentrations, agonist/activator activity
Experimental: For ECso determination, a dose-response test was performed using 6 concentrations of each tested compound. Dose-response curves were fitted using the sigmoidal dose-response (variable slope) analysis in GraphPad Prism program (Graph Pad Inc) and ECso of agonist/activator activity was calculated. Dose-response experiments were all performed in duplicate, two times independently.

SMILES	EC50 [nM]
COC(=O)c1cccc(C2CCN(S(=O)(=O)c3ccc(OC)c(N4[C@@H]5CC[C@H]4CN(C(=O)c4ccc(F)cc4Cl)C5)c3)CC2)c1 [compound 041, methyl 3-[1-[3-[(1S,5R)-3-(2-chloro-4-fluoro-benzoyl)-3,8-diazabicyclo[3.2.1]octan-8-yl]-4-methoxy-phenyl]sulfonyl-4-piperidyl]benzoate]	< 1000
Cc1ccc(S(=O)(=O)N2CCN(CCc3ccc(F)cc3)CC2)cc1N1[C@@H]2CC[C@H]1CN(C(=O)c1ccc(F)cc1Cl)C2 [compound 116, (2-chloro-4-fluoro-phenyl)-[(1S,5R)-8-[5-[4-[2-(4-fluorophenyl)ethyl]piperazin-1-yl]sulfonyl-2-methyl-phenyl]-3,8-diazabicyclo[3.2.1]octan-3-yl]methanone]	< 1000
CCCN(C)S(=O)(=O)c1ccc(OC)c(N2[C@@H]3CC[C@H]2CN(C(=O)c2ccc(F)cc2Cl)C3)c1 [compound 003]	1000 to 10000
CC1(NS(=O)(=O)c2cc(Cl)c(O)c(N3[C@@H]4CC[C@H]3CN(C(=O)c3ccc(F)cc3Cl)C4)c2)CC1 [compound 101, 3-chloro-5-[(1S,5R)-3-(2-chloro-4-fluoro-benzoyl)-3,8-diazabicyclo[3.2.1]octan-8-yl]-4-hydroxy-N-(1-methylcyclopropyl) benzenesulfonamide]	1000 to 10000
COc1ccc(S(=O)(=O)N2CCC(c3cccc(-n4cccn4)c3)CC2)cc1N1[C@@H]2CC[C@H]1CN(C(=O)c1ccc(F)cc1Cl)C2 [compound 043, (2-chloro-4-fluoro-phenyl)-[(1S,5R)-8-[2-methoxy-5-[[4-(3-pyrazol-1-ylphenyl)-1-piperidyl]sulfonyl]phenyl]-3,8-diazabicyclo[3.2.1]octan-3-yl]methanone]	< 1000
CCCN(C)S(=O)(=O)c1ccc(Cl)c(N2[C@@H]3CC[C@H]2CN(C(=O)c2ccc(F)cc2Cl)C3)c1 [compound 115, 4-chloro-3-[(1S,5R)-3-(2-chloro-4-fluoro-benzoyl)-3,8-diazabicyclo[3.2.1]octan-8-yl]-N-methyl-N-propyl-benzenesulfonamide]	< 1000
CN(C(C)(C)C)S(=O)(=O)c1cc(Cl)c(Cl)c(N2[C@@H]3CC[C@H]2CN(C(=O)c2ccc(F)cc2Cl)C3)c1 [compound 133, N-tert-butyl-3,4-dichloro-5-[(1S,5R)-3-(2-chloro-4-fluoro-benzoyl)-3,8-diazabicyclo[3.2.1]octan-8-yl]-N-methyl-benzenesulfonamide]	< 1000
Cc1ccc(S(=O)(=O)N2CCC(c3ccccc3)CC2)cc1N1[C@@H]2CC[C@H]1CN(C(=O)c1ccc(F)cc1Cl)C2 [compound 067, (2-chloro-4-fluoro-phenyl)-[(1S,5R)-8-[2-methyl-5-[(4-phenyl-1-piperidyl)sulfonyl]phenyl]-3,8-diazabicyclo[3.2.1]octan-3-yl]methanone]	< 1000
COc1ccc(S(=O)(=O)N2CCC(c3ccccc3)CC2)cc1N1[C@@H]2CC[C@H]1CN(C(=O)c1ccc(F)cc1Cl)C2 [compound 009, (2-chloro-4-fluoro-phenyl)-[(1S,5R)-8-[2-methoxy-5-[(4-phenyl-1-piperidyl)sulfonyl]phenyl]-3,8-diazabicyclo[3.2.1]octan-3-yl]methanone]	1000 to 10000
COc1ccc(S(=O)(=O)N2CCN(CC(O)c3ccc(F)cc3)CC2)cc1N1C2CCC1CN(C(=O)c1ccc(F)cc1Cl)C2 (racemic) [compound 128, (2-chloro-4-fluoro-phenyl)-[(1S,5R)-8-[5-[4-[(2RS)-2-(4-fluorophenyl)-2-hydroxy-ethyl]piperazin-1-yl]sulfonyl-2-methoxy-phenyl]-3,8-diazabicyclo[3.2.1]octan-3-yl]methanone]	< 1000
CNC1CN(c2ccc(S(=O)(=O)N3CCC(c4ccccc4)CC3)cc2N2[C@@H]3CC[C@H]2CN(C(=O)c2ccc(F)cc2Cl)C3)C1 [compound 123, (2-chloro-4-fluoro-phenyl)-[(1S,5R)-8-[2-[3-(methylamino)azetidin-1-yl]-5-[(4-phenyl-1-piperidyl)sulfonyl]phenyl]-3,8-diazabicyclo[3.2.1]octan-3-yl]methanone]	< 1000
